These results are taken from publication PMC8998492 (2022).

Structures are written as SMILES.

In general, KD refers to a measure of binding affinity in units of concentration. Read a low KD as higher affinity. As a reminder, the ΔTm is the change in melting temperature against a reference sample.

In assay [1] the test system is 5'-biotin c-myc (i-motif) (DNA, i motif) CCCCACCTTCCCCACCCTCCCCACCCTCCCC
Description: SPR. As to conditions: 100 mM KCl; 20 mM MES pH 5.5, 0.05% Tween-20, 25 °C; DNA immobilised.

Assay [2] deals with 5'-biotin c-myc G-quadruplex (DNA, G4) TTGAGGGTGGGTAGGGTGGGTAAA
Description: SPR. As to conditions: 100 mM KCl; 20 mM Tris-HCl pH 7.4, 25 °C; DNA immobilised.

For assay [3], the system named is c-myc promoter i-motif (DNA, i motif) CCCCACCTTCCCCACCCTCCCCACCCTCCCC
Description: fluorescent displacement (FID), microplate reader. The settings on record: 100 mM KCl; 1 × BPES; tracer G59 displaced.

The test system is the same in assay [4]. Description: ITC. The settings on record: 100 μM G59 injected into 4 μM DNA; KD = 1/Ka (Ka 5.94×10^5 M-1).
Assay [5] has the same test system. Description: CD melting. The settings on record: 100 mM KCl; 1 × BPES pH 5.5; 2 μM DNA, 10 μM G59; Tm 53.1 to 59.9 °C.
Assay [6] concerns DS26 (DNA, duplex) CAATCGGATCGAATTCGATCCGATTG
Description: fluorescence titration. The settings on record: 100 mM KCl; 20 mM Tris-HCl pH 7.4; also unstained in PAGE.

For assay [7], the system named is SS26 (DNA, single strand) ATACGATGCTTCACGGTGCTATCTG
Description: fluorescence titration. The settings on record: 100 mM KCl; 20 mM Tris-HCl pH 7.4; also unstained in PAGE.

The test system of assay [8] is c-myc promoter i-motif (DNA, i motif) CCCCACCTTCCCCACCCTCCCCACCCTCCCC
Description: fluorescence enhancement. The settings on record: 100 mM KCl; 1 × BPES pH 5.5.

Assay [9] deals with c-myc-C7A (DNA, i motif) CCCCACATTCCCCACCCTCCCCACCCTCCCC
Description: fluorescence enhancement. As to conditions: 100 mM KCl; 1 × BPES pH 5.5.

Assay [10] deals with c-myc-C7T (DNA, i motif) CCCCACTTTCCCCACCCTCCCCACCCTCCCC
Description: fluorescence enhancement. As to conditions: 100 mM KCl; 1 × BPES pH 5.5.

Assay [11] deals with c-myc-C7G (DNA, i motif) CCCCACGTTCCCCACCCTCCCCACCCTCCCC
Description: fluorescence enhancement. As to conditions: 100 mM KCl; 1 × BPES pH 5.5.

Assay [12] deals with c-myc-C16A (DNA, i motif) CCCCACCTTCCCCACACTCCCCACCCTCCCC
Description: fluorescence enhancement. The settings on record: 100 mM KCl; 1 × BPES pH 5.5.

The subject of assay [13] is c-myc-C16T (DNA, i motif) CCCCACCTTCCCCACTCTCCCCACCCTCCCC
Description: fluorescence enhancement. As to conditions: 100 mM KCl; 1 × BPES pH 5.5.

The test system of assay [14] is c-myc-C16G (DNA, i motif) CCCCACCTTCCCCACGCTCCCCACCCTCCCC
Description: fluorescence enhancement. As to conditions: 100 mM KCl; 1 × BPES pH 5.5.

In assay [15] the test system is c-myc-C25A (DNA, i motif) CCCCACCTTCCCCACCCTCCCCACACTCCCC
Description: fluorescence enhancement. The settings on record: 100 mM KCl; 1 × BPES pH 5.5.

Assay [16] deals with c-myc-C25T (DNA, i motif) CCCCACCTTCCCCACCCTCCCCACTCTCCCC
Description: fluorescence enhancement. The settings on record: 100 mM KCl; 1 × BPES pH 5.5.

Assay [17] relates to c-myc-C25G (DNA, i motif) CCCCACCTTCCCCACCCTCCCCACGCTCCCC
Description: fluorescence enhancement. As to conditions: 100 mM KCl; 1 × BPES pH 5.5.

Assay [18] relates to c-myc promoter i-motif (DNA, i motif) CCCCACCTTCCCCACCCTCCCCACCCTCCCC
Description: fluorescent displacement (FID). As to conditions: 100 mM KCl; 1 × BPES pH 5.5; tracer 1 μM G59 displaced, 2 μM DNA; 5 eq (5 μM) 3be.

Consider `C[C@H]1O[C@@H](O[C@H]2CC[C@@]3(C)[C@@H](CC[C@]4(C)[C@@H]3C=CC3=C5CC(C)(C)CC[C@]5(CO)[C@H](O)C[C@]34C)[C@]2(C)CO)[C@H](O)[C@@H](O[C@@H]2O[C@H](CO)[C@@H](O)[C@H](O)[C@H]2O)[C@H]1O`, for which the figures for the KD in [1] and in assay [2] were 9.52 µM and 46.2 µM, respectively. Further, in assay [3], the binding result is reported as “yes”.
As for `O=C1c2cccc3c(-c4ccc5c(c4)c4cc(-c6ccc7c8c(cccc68)C(=O)N(CCN6CCCC6)C7=O)ccc4n5CCN4CCCC4)ccc(c23)C(=O)N1CCN1CCCC1`, the dissociation constant (KD) in assay [4] stood at 1.68 µM. The ΔTm in assay [5] is 6.8 °C. The binding result in assay [6] and in assay [7] was “weak” each time. The FI/F0 turned out to be 17.98 in [8]; 13.35 in assay [9]; 18.35 in assay [10]; 5.44 in assay [11]; 15.2 in assay [12]; 18.23 in assay [13]. Also, the FI/F0 in assay [14] was 6.03; in assay [15] it was 17.15; in [16], 17.92; in [17] it was 6.59.
As for `c1ccc2c(c1)c1cc(-c3cn(CCN4CCCC4)nn3)ccc1n2CCN1CCCC1`, the relative replacement ratio in [18] is given as 42.09%.
